Experimental data: patent US20230181721A1 (priority 2020, published 2023)

Legend:
[1] = tested on: HLA-A2.1 transgenic mice; details: mouse, in vivo
[2] = tested on: HLA-A2.1 transgenic mice; details: mouse, in vivo; remark: listed apart in the source
[3] = tested on: human PBMC; format: cell-based
[4] = tested on: HLA-A2.1 transgenic mice; details: mouse, in vivo; remark: listed apart in the source

Row | Substance | tetramer response [1] | Trm (response) [2] | Trm response [2] | Patient response [3] | ELIspot (YES/NO) [4]
1 | ALSKGVHFV [3_wt] | medium | No | No | Yes | Yes
2 | AVSKGVHFI [3_neoB] | medium | – | No | – | Yes
3 | CLEASFNYV [5_neoA] | medium | Yes | Yes | Yes | No
4 | FLAGLIAIV [6_neoA] | high | Yes | Yes | Yes | Yes
5 | FLLNKEMYL [8_wt] | medium | No | No | Yes | Yes
6 | FMAGLIAIV [6_neoB] | medium | – | No | – | Yes
7 | FTAHIQWMV [7_neoB] | medium | – | No | – | Yes
8 | GLMWLSYFV [14_neoA] | medium | No | No | Yes | Yes
9 | GLSRIGMEV [15_neoA] | high | – | No | – | No
10 | GTSRIGMEV [15_neoB] | high | – | No | – | No
11 | KLADYNYKV [19_neoA] | low | – | – | Yes | Yes
12 | KLKDCVMYA [20_wt] | medium | – | Yes | – | No
13 | KLSYGIATE [22_neoB] | high | – | No | – | No
14 | LALLLLDRL [23_wt] | medium | Yes | Yes | Yes | Yes
15 | LLLDRLNQV [25_neoA] | medium | – | No | – | Yes
16 | LLLPQGTTV [29_neoA] | medium | Yes | Yes | Yes | No
17 | LLLTILTSV [26_neoA] | medium | Yes | Yes | Yes | Yes
18 | LLSAGIFGV [27_neoA] | high | No | No | Yes | Yes
19 | LLTGRLQSV [24_neoA] | high | – | No | – | Yes
20 | LLWLIINLV [28_neoA] | high | No | No | Yes | Yes
21 | LVSAGIFGV [27_neoB] | high | Yes | Yes | Yes | Yes
22 | MLAKALRKV [30_wt] | high | No | No | Yes | Yes
23 | MMISAGFSL [31_wt] | – | – | – | Yes | –

Row | Substance | tetramer response [1] | Trm (response) [2] | Trm response [2] | Patient response [3] | ELIspot (YES/NO) [4]
24 | NLIDSYFVV [32_wt] | medium | Yes | Yes | Yes | Yes
25 | NLLKDCPAV [33_wt] | medium | – | No | – | Yes
26 | NLNESLIDL [34_wt] | medium | – | No | – | No
27 | QLEMELTPV [36_wt] | medium | Yes | Yes | Yes | No
28 | RLMTWLDMV [37_neoA] | high | No | No | Yes | Yes
29 | RLNEVAKNV [38_neoA] | high | – | No | – | No
30 | RLNQLESKV [39_neoA] | medium | – | Yes | – | No
31 | RTMTWLDMI [37_neoB] | high | No | No | Yes | Yes
32 | SAPGVFCGV [41_neoB] | high | No | No | YES | Yes
33 | SAWALIISV [42_neoB] | high | Yes | Yes | Yes | Yes
34 | SLIAYTMSV [40_neoA] | medium | – | No | – | Yes
35 | SMWALIISV [42_wt] | high | Yes | Yes | Yes | Yes
36 | VLFLHVTYV [48_neoA] | high | No | No | Yes | Yes
37 | VLMAPISAV [46_neoA] | medium | – | No | – | Yes
38 | VLPTKLNDV [47_neoA] | medium | Yes | Yes | Yes | No
39 | VSFLHVTYV [48_neoB] | high | Yes | Yes | Yes | Yes
40 | VVFLHVTYV [48_wt] | high | No | No | Yes | Yes
41 | WLMWLIINL [49_wt] | high | – | No | – | No
42 | YLMADLVYT [55_neoB] | medium | – | No | – | Yes
43 | YLNSTNVTV [51_neoA] | high | – | Yes | – | Yes
44 | YLYALVYFV [54_neoA] | high | – | Yes | – | Yes
45 | l_neoA (ALNTLVKQV) | high | Yes | Yes | Yes | Yes
